The target in experiment [1] is Serine/threonine-protein kinase pim-2 (Homo sapiens, UniProt Q9P1W9). Nature of the experiment: Pim Kinase Assay. As to conditions: pH 7.5; 22 °C. On the procedure:
(§1) Assays were conducted in 384-well v-bottom polypropylene plates. Test compound was mixed with Pim and biotinylated peptide substrate, followed by immediate initiation with [gamma-33 P]ATP. Reactions were quenched and transferred to 384-well streptavidin-coated plates. After incubation, radioactivity was counted on a TopCount Scintillation Plate Reader (Packard).

For experiment [2], the target named is Serine/threonine-protein kinase pim-1 (Homo sapiens, UniProt P11309). Nature of the experiment: Pim Kinase Assay. As to conditions: pH 7.5; 22 °C. Here is the method: as §1

Results on six molecules are retold here after BindingDB's records for doi:10.1016/j.bmcl.2008.08.079 (Abbott Laboratories, 2008).

Sequence of Serine/threonine-protein kinase pim-1 (P11309 whole entry): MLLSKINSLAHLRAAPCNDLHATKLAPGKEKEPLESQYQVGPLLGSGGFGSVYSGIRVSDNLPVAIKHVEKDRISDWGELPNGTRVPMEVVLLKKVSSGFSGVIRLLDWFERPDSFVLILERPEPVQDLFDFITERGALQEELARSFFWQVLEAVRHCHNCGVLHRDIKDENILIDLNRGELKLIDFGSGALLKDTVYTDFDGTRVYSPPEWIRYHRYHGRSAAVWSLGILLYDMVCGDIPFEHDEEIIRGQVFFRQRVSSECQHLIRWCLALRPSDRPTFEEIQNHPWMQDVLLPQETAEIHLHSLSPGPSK
Sequence of Serine/threonine-protein kinase pim-2 (Q9P1W9 whole entry): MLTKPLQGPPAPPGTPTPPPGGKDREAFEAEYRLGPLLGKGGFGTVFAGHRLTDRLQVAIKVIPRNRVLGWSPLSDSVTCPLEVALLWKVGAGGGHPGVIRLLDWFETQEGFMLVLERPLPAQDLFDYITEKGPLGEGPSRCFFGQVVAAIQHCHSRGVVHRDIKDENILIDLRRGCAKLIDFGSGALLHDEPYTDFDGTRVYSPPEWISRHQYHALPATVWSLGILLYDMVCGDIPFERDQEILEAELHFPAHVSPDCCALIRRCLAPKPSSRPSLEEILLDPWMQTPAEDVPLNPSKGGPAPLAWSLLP

What is called Ki is the dissociation constant of the complex between target and ligand, obtained from inhibition or displacement. A high value points to weaker binding. On to `CC(C)n1c2noc(=O)c-2c(O)c2cc(F)c(Cl)cc21` [7-chloro-6-fluoro-9-(propan-2-yl)-1H,3H,4H,9H-quinolino[2,3-c][1,2]oxazole-3,4-dione], for which the Ki in experiment [1] amounted to 0.0628 µM; in experiment [2], 0.0123 µM.

`CCn1c2cc(Cl)c(F)cc2c(=O)c2c(=O)on(C)c21` [7-chloro-9-ethyl-6-fluoro-1-methyl-1H,3H,4H,9H-quinolino[2,3-c][1,2]oxazole-3,4-dione]: the Ki in experiment [1] was more than 1.42 µM; in experiment [2] it was 0.0501 µM.

In the case of `CCn1c2noc(=O)c-2c(O)c2cc(O)c(Cl)cc21` [7-chloro-9-ethyl-6-hydroxy-1H,3H,4H,9H-quinolino[2,3-c][1,2]oxazole-3,4-dione], the Ki in experiment [1] turned out to be 0.0435 µM.

Turning to `CCn1c2noc(=O)c-2c(O)c2cc(OC)c(Cl)cc21` [7-chloro-9-ethyl-6-methoxy-1H,3H,4H,9H-quinolino[2,3-c][1,2]oxazole-3,4-dione], the Ki in experiment [1] was more than 1.42 µM; in experiment [2], 2.7 µM.

Consider `O=c1onc2n(Cc3ccccc3)c3cc(Cl)c(F)cc3c(O)c1-2` [9-benzyl-7-chloro-6-fluoro-1H,3H,4H,9H-quinolino[2,3-c][1,2]oxazole-3,4-dione], for which the values for the Ki in experiment [1] and in experiment [2] were 0.558 µM and 0.0365 µM, respectively.

Regarding `CCCCn1c2noc(=O)c-2c(O)c2cc(F)c(Cl)cc21` [9-butyl-7-chloro-6-fluoro-1H,3H,4H,9H-quinolino[2,3-c][1,2]oxazole-3,4-dione], the Ki in experiment [1] was determined as 0.165 µM; in experiment [2], 0.015 µM.
